# Reference: publication PMC5484173, “CB1 Allosteric Modulator Org27569 Is an Antagonist/Inverse Agonist of ERK1/2 Signaling” (Cannabis and Cannabinoid Research, 2016)
# Several values for one entry are separate records, joined by “and”; a condition that tells them apart may be missing. Equal values may be shown once. Entries after “also recorded” stand apart in the source; their conditions may differ. Read-outs that look alike come from different tables or passages of the source.
# Legend:
# [1] = target: T1, human cannabinoid type-1 receptor (hCB1) (Homo sapiens, UniProt P21554); format: cell-based
# T1 construct: expressed in transfected cells
# T1 sequence (P21554 whole entry): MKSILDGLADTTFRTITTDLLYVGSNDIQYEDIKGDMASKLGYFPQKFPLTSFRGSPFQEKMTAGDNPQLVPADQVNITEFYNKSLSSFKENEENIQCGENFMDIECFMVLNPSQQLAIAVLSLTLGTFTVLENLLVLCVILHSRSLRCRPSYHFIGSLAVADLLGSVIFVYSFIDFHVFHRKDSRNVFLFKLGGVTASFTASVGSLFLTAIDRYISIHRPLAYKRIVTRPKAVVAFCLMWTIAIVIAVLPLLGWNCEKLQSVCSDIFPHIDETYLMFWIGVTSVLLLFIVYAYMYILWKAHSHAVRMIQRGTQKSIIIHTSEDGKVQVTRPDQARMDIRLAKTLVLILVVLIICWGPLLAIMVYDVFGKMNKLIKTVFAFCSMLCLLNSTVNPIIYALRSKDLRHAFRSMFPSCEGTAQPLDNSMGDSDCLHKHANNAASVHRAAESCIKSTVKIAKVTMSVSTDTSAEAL
# GFP-rat CB1 receptor = target: T2, GFP-rat CB1 receptor (Rattus norvegicus, UniProt P20272); assay: Receptor internalization (puncta count) in GFP-rat CB1 HEK293 cells; format: cell-based; conditions: 20-120 min
# T2 construct: expressed in transfected cells
# T2 sequence (P20272 whole entry): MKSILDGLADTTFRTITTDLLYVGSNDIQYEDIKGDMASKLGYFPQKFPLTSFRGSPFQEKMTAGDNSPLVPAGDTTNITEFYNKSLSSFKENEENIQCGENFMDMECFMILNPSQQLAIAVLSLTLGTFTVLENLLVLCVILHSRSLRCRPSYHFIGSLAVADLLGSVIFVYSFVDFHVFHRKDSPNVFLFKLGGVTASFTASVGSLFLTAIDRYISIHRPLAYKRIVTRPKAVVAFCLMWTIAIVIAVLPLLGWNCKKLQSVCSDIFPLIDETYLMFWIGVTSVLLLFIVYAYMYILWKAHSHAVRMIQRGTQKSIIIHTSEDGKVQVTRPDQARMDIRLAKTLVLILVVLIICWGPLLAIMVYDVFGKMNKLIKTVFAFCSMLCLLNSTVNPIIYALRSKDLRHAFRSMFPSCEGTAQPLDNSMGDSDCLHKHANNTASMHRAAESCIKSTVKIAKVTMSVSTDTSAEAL
# Protocol: (§1) Vendor authenticated human embryonic kidney (HEK293; American Type Culture Collection, Rockville, MD) cells were cultured in 5% fetal bovine serum (FBS) defined (Hyclone Labs, Logan, UT) in Dulbecco's modified Eagle's medium (DMEM; Corning Cellgro, Manassas, VA) at 37°C and 5% CO2. Cell lines were generated as previously described[32] by transfection of the untagged hCB1 or N-terminally green fluorescent protein (GFP)-tagged rat CB1 receptor with Lipofectamine 2000 (Life Technologies, Gaithersburg, MD). Cells were maintained in a culture medium with geneticin (0.5 mg/mL; G418) and not used after 25 passages.
# (§2) Cells were plated in poly-D-lysine (PDL)-coated 6-well plates or 100-mm dishes (for fractionation experiments) to a confluency of ∼70–80% and serum starved for 24 h before all treatments. For internalization experiments, cells were plated on PDL-coated cover-slips in a 24-well format. For experiments examining Gi/o protein mediation, cells were exposed to PTX (200 ng/mL) for 18 h before drug treatment when appropriate.
# For internalization experiments, GFP-rat CB1 HEK293 cells were plated on PDL-coated cover-slips in the 24-well format and treated with vehicle (0.2% DMSO), CP55,940 (1 μM), Org27569 (10 μM), or both for 20–120 min. Cell images were taken blinded, converted to grayscale in Photoshop CS5, and then analyzed in ImageJ. Background was subtracted by using a “rolling ball” algorithm (rolling=3). Puncta within the range (size=3–400, circularity=0.01–1.00) were counted. These parameters were used based on image resolution and brightness. The same conditions were applied to all the images and image analyses.
# [2] = system: hCB1-untransfected HEK293 cells; assay: phospho-ERK1/2 western blot in hCB1-untransfected HEK293 cells; format: cell-based, human; conditions: Org27569 10 μM, 20-min treatment
# Protocol: as §1, with “passages. […]” for “passages.”
# Protein amount (20 μg) was determined by the Bradford method, separated by 10% SDS-PAGE, and transferred to nitrocellulose membranes. […]
# Membranes were rinsed thrice in 0.1% Tween-20 in PBS before incubating with LiCor secondary antibodies (IRDye® 800CW Goat anti-Mouse; 1:6666; IRDye 680RD Goat anti-Rabbit; 1:10,000) at room temperature for 1 h. Blots were imaged using LiCor Odyssey imaging software, and phospho-ERK signal was normalized to total ERK and data expressed as percent of vehicle control. […]
# Data were normalized as percent vehicle control and analyzed by one- or two-way ANOVA with Newman–Keuls and Bonferroni post hoc tests, and data were considered significant with p<0.05. […]
# [3] = target: T1, human cannabinoid type-1 receptor (hCB1); assay: Subcellular fractionation: phospho-ERK in nuclear-enriched and cytosolic fractions of hCB1 HEK293 cells; format: cell-based; conditions: Org27569 10 μM, 20 min, normalized to beta-actin
# Protocol: as §2
# Cells were treated by application of vehicle or antagonist followed immediately by application of vehicle or agonist and incubated in serum-free DMEM at 37°C for times indicated, then washed once with ice-cold phosphate-buffered saline (PBS), and lysed with buffer containing HEPES (50 mM), NaCl (150 mM), EDTA (1 mM), EGTA (1 mM), glycerol (10%), Triton X-100 (1%), MgCl2 (10 μM), NaF (25 mM), Na3VO4 (1 mM), para-nitrophenyl phosphate (20 mM) and EDTA-free protease inhibitor. Lysates were incubated on ice for 30 min, then centrifuged at 16,000 g for 30 min at 4°C, and supernatants were collected.
# Cells were grown and treated as described above on 100-mm dishes and washed once with ice-cold PBS. […]
# The initial S1 fraction was centrifuged at 10,000 g for 10 min and the resulting S2 fraction served as the cytosolic/membrane fraction. Protein was determined by the NanoDrop™ A280 assay (Thermo Scientific, Wilmington, DE). […]
# CB1 = system: CB1; set-up: method as in PMID 26044547; conditions: Chinese hamster ovary cells, AlphaScreen SureFire kit; cited from earlier work
smiles,measurement,setting,value
"CCCCC/C=C\C/C=C\C/C=C\C/C=C\CCCC(=O)OC(CO)CO [2-AG, 2-arachidonoylglycerol]",EC80 for ERK activation,"[1]; agonist alone, hCB1 HEK293 cells, 5 min",1200 nM
"CCCCCCC(C)(C)c1ccc([C@@H]2C[C@H](O)CC[C@H]2CCCO)c(O)c1 [CP55,940]",EC80 for ERK activation,[1],6.1 nM
same,"effect on ERK phosphorylation, agonist alone",[1],robust increase in ERK phosphorylation
same,"receptor internalization (puncta), agonist alone","GFP-rat CB1 receptor; CP55,940 1 μM",increases in puncta
CCc1c(C(=O)NCCc2ccc(N3CCCCC3)cc2)[nH]c2ccc(Cl)cc12 [Org27569],"bottom of the fit curve (phospho-ERK, percent of vehicle control)",[1],111.3%±7.72%
same,"effect on CP55,940-induced activation of ERK",[1],"prevented CP55,940-induced activation of ERK"
same,extent of antagonism of 2-AG-stimulated ERK activation,[1],did not completely attenuate
same,"extent of antagonism of CP55,940-induced ERK activation",[1],fully antagonized
same,extent of antagonism of THC-induced ERK activation,[1],did not completely attenuate
same,pIC50±SE on ERK phosphorylation,[1],6.78±0.273 and 6.783±0.273
same,"effect on ERK phosphorylation, compound alone","[1]; 10.0 μM alone, 5-min incubation",small but nonsignificant reduction of ERK phosphorylation
same,effect on phospho-ERK levels in PTX-treated cells,"[1]; Org27569 10.0 μM, 20 min, after overnight PTX (200 ng/mL)",not in PTX-treated cells
same,effect on basal ERK phosphorylation,"[1]; Org27569 alone (10 μM), 20-min treatment, hCB1-transfected HEK293 cells, no PTX",significantly reduced basal ERK phosphorylation; also recorded: reduced basal ERK phosphorylation in hCB1-transfected; also recorded: produced a reduction in phospho-ERK levels in control cells
same,"bottom of the fit curve (phospho-ERK, percent of vehicle control)","[1]; Org27569 concentration-response against 2-AG at EC80 (1.2 μM), 5 min",196%±123.2%
same,pIC50±SE on ERK phosphorylation,"[1]; no probe agonist (alone, basal ERK phosphorylation), 20 min",6.86±0.214
same,IC50,"[1]; no probe agonist (alone, basal ERK phosphorylation), cells treated for 20 min",139 nM
same,pIC50±SE on ERK phosphorylation,"[1]; probe agonist 2-AG (1.2 μM, EC80), 5 min",6.26±0.239
same,IC50,"[1]; probe agonist 2-AG (1.2 μM, EC80), cells treated for 5 min, read-out: IC50 on ERK phosphorylation",546 nM
same,pIC50±SE on ERK phosphorylation,"[1]; probe agonist THC (494 nM in table, 500 nM in text; EC80), 5 min",6.38±0.394
same,IC50,"[1]; probe agonist THC (494 nM, EC80), cells treated for 5 min, read-out: IC50 on ERK phosphorylation",417 nM
same,IC50,[1]; read-out: IC50 on ERK phosphorylation,165 nM
same,effect on basal ERK phosphorylation,[2],not in hCB1-untransfected HEK293 cells
same,"receptor internalization, compound alone",GFP-rat CB1 receptor; Org27569 10 μM alone,did not significantly affect receptor internalization
same,"effect on CP55,940-induced receptor internalization (increases in puncta)","GFP-rat CB1 receptor; Org27569 10 μM with CP55,940 1 μM",prevented
same,effect on cytosolic phospho-ERK levels,[3]; cytosolic fraction,significantly decreased
same,effect on nuclear phospho-ERK levels,[3]; nuclear-enriched fraction,significantly decreased
same,effect on THC-induced ERK activation,CB1,no effect
